# Experimental data taken from patent US7517874B2 (priority 2007, dated 2009).
# What was measured:
# rat CB2 receptor (rCB2) = target: T1, rat CB2 receptor (rCB2) (Rattus norvegicus, UniProt Q9QZN9); experiment: cell-based; type: cell-based; conditions: for +/− RCB2: agonist or inverse agonist at rCB2
# T1 sequence (Q9QZN9 1-360): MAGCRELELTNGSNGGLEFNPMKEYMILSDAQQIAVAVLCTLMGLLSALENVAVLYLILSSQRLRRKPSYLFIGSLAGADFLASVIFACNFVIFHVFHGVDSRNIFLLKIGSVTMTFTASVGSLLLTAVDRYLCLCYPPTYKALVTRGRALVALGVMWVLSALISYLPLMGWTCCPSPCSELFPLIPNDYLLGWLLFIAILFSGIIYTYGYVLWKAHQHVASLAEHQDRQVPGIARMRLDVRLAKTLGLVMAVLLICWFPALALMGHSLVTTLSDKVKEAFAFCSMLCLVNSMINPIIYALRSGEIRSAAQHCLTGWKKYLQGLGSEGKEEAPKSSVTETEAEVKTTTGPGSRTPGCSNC
# Procedure, shortened: (§1)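 Agonism or inverse agonism was assessed as change in intracellular cAMP in CHO-K1 cells expressing human CB1 or rat CB2 (genomic DNA, pcDNA3.1).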
# [1] = target: human CB1 receptor (hCB1) (Homo sapiens, UniProt P21554); experiment: cell-based; type: cell-based; conditions: for +/− HCB1: agonist or inverse agonist at hCB1
# Sequence of human CB1 receptor (hCB1) (P21554 whole entry): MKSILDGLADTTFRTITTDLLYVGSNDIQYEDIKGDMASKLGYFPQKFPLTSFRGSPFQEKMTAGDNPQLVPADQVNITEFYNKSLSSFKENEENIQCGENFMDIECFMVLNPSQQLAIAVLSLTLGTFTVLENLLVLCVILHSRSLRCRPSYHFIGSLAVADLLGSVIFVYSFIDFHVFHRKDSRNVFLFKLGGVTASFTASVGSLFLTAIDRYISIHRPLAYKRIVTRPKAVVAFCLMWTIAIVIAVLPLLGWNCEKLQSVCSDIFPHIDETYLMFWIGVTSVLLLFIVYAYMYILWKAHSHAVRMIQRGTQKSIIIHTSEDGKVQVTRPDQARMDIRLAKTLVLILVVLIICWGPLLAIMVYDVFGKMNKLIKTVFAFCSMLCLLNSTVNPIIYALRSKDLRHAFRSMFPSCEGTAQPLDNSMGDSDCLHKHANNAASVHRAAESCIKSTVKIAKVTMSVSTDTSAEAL
# Procedure, shortened: as §1
SMILES,+/− RCB2 (rat CB2 receptor (rCB2)),EC50 [1],+/− HCB1 [1],EC50 (rat CB2 receptor (rCB2))
"CNC(=O)[C@@H](NC(=O)c1nc(Cc2ccccc2)n2c1CN(C)CCC2)C(C)(C)C [Compound 459, (S)-3-benzyl-N-(3,3-dimethyl-1-(methylamino)-1-oxobutan-2-yl)-8-methyl-6,7,8,9-tetrahydro-5H-imidazo[1,5-a][1,4]diazepine-1-carboxamide]",+,> 10 µM,,
"CNC(=O)[C@@H](NC(=O)c1nc(C2=CCNCC2)n2c1CN(C)CCC2)C(C)(C)C [Compound 460, (S)-N-(3,3-dimethyl-1-(methylamino)-1-oxobutan-2-yl)-8-methyl-3-(1,2,3,6-tetrahydropyridin-4-yl)-6,7,8,9-tetrahydro-5H-imidazo[1,5-a][1,4]diazepine-1-carboxamide]",+,,+,
"CCS(=O)(=O)N1CCCn2c(-c3ccccc3)nc(C(=O)N[C@H](C(=O)NC)C(C)(C)C)c2C1 [Compound 461, (S)-N-(3,3-dimethyl-1-(methylamino)-1-oxobutan-2-yl)-8-(ethylsulfonyl)-3-phenyl-6,7,8,9-tetrahydro-5H-imidazo[1,5-a][1,4]diazepine-1-carboxamide]",−,> 10 µM,,
"CNC(=O)[C@@H](NC(=O)c1nc(-c2ccccc2)n2c1CN(C(=O)c1ccccc1)CCC2)C(C)(C)C [Compound 462, (S)-8-benzoyl-N-(3,3-dimethyl-1-(methylamino)-1-oxobutan-2-yl)-3-phenyl-6,7,8,9-tetrahydro-5H-imidazo[1,5-a][1,4]diazepine-1-carboxamide]",,> 10 µM,,> 10 µM
"CNC(=O)[C@@H](NC(=O)c1nc(-c2ccccc2)n2c1CN(C(C)=O)CCC2)C(C)(C)C [Compound 463, (S)-8-acetyl-N-(3,3-dimethyl-1-(methylamino)-1-oxobutan-2-yl)-3-phenyl-6,7,8,9-tetrahydro-5H-imidazo[1,5-a][1,4]diazepine-1-carboxamide]",+,> 10 µM,,
"CNC(=O)[C@@H](NC(=O)c1nc(-c2ccccc2)n2c1CN(S(=O)(=O)c1ccc(F)cc1)CCC2)C(C)(C)C [Compound 464, (S)-N-(3,3-dimethyl-1-(methylamino)-1-oxobutan-2-yl)-8-(4-fluorophenylsulfonyl)-3-phenyl-6,7,8,9-tetrahydro-5H-imidazo[1,5-a][1,4]diazepine-1-carboxamide]",−,> 10 µM,,
"COC(=O)[C@@H](NC(=O)c1nc(-c2ccccc2)n2c1CNCCC2)C(C)(C)C [Compound 465, (S)-methyl 3,3-dimethyl-2-(3-phenyl-6,7,8,9-tetrahydro-5H-imidazo[1,5-a][1,4]diazepine-1-carboxamido)butanoate]",+,> 10 µM,,
COC(=O)[C@@H](NC(=O)c1nc(-c2ccc(C)cc2F)n2c1CNCCC2)C(C)(C)C [Compound 466],−,> 10 µM,,
"COC(=O)[C@@H](NC(=O)c1nc(-c2ccccc2)n2c1CN(C)CCC2)C(C)(C)C [Compound 467, (S)-methyl 3,3-dimethyl-2-(8-methyl-3-phenyl-6,7,8,9-tetrahydro-5H-imidazo[1,5-a][1,4]diazepine-1-carboxamido)butanoate]",+,> 10 µM,,
"COC(=O)[C@@H](NC(=O)c1nc(-c2ccccc2)n2c1CN(C(C)C)CCC2)C(C)(C)C [Compound 468, (S)-methyl 2-(8-isopropyl-3-phenyl-6,7,8,9-tetrahydro-5H-imidazo[1,5-a][1,4]diazepine-1-carboxamido)-3,3-dimethylbutanoate]",−,> 10 µM,,
"COC(=O)[C@@H](NC(=O)c1nc(-c2ccc(C)cc2F)n2c1CN(C)CCC2)C(C)(C)C [Compound 469, (S)-methyl 2-(3-(2-fluoro-4-methylphenyl)-8-methyl-6,7,8,9-tetrahydro-5H-imidazo[1,5-a][1,4]diazepine-1-carboxamido)-3,3-dimethylbutanoate]",,> 10 µM,,> 10 µM
"COC(=O)[C@@H](NC(=O)c1nc(-c2ccc(C)cc2F)n2c1CN(CC1CC1)CCC2)C(C)(C)C [Compound 470, (S)-methyl 2-(8-(cyclopropylmethyl)-3-(2-fluoro-4-methylphenyl)-6,7,8,9-tetrahydro-5H-imidazo[1,5-a][1,4]diazepine-1-carboxamido)-3,3-dimethylbutanoate]",−,> 10 µM,,
"CN1CCCn2c(-c3ccccc3)nc(C(=O)N[C@H](C(=O)O)C(C)(C)C)c2C1 [Compound 471, (S)-3,3-dimethyl-2-(8-methyl-3-phenyl-6,7,8,9-tetrahydro-5H-imidazo[1,5-a][1,4]diazepine-1-carboxamido)butanoic acid]",,> 10 µM,,> 10 µM
"CC(C)NC(=O)[C@@H](NC(=O)c1nc(-c2ccccc2)n2c1CN(C)CCC2)C(C)(C)C [Compound 472, (S)-N-(1-(isopropylamino)-3,3-dimethyl-1-oxobutan-2-yl)-8-methyl-3-phenyl-6,7,8,9-tetrahydro-5H-imidazo[1,5-a][1,4]diazepine-1-carboxamide]",+,> 10 µM,,
"CCCNC(=O)[C@@H](NC(=O)c1nc(-c2ccccc2)n2c1CN(C)CCC2)C(C)(C)C [Compound 473, (S)-N-(3,3-dimethyl-1-oxo-1-(propylamino)butan-2-yl)-8-methyl-3-phenyl-6,7,8,9-tetrahydro-5H-imidazo[1,5-a][1,4]diazepine-1-carboxamide]",+,> 10 µM,,
"CC(C)CNC(=O)[C@@H](NC(=O)c1nc(-c2ccccc2)n2c1CN(C)CCC2)C(C)(C)C [Compound 474, (S)-N-(1-(isobutylamino)-3,3-dimethyl-1-oxobutan-2-yl)-8-methyl-3-phenyl-6,7,8,9-tetrahydro-5H-imidazo[1,5-a][1,4]diazepine-1-carboxamide]",+,> 10 µM,,
"COCCNC(=O)[C@@H](NC(=O)c1nc(-c2ccccc2)n2c1CN(C)CCC2)C(C)(C)C [Compound 475, (S)-N-(1-(2-methoxyethylamino)-3,3-dimethyl-1-oxobutan-2-yl)-8-methyl-3-phenyl-6,7,8,9-tetrahydro-5H-imidazo[1,5-a][1,4]diazepine-1-carboxamide]",+,> 10 µM,,
"CN1CCCn2c(-c3ccccc3)nc(C(=O)N[C@H](C(=O)NCCF)C(C)(C)C)c2C1 [Compound 476, (S)-N-(1-(2-fluoroethylamino)-3,3-dimethyl-1-oxobutan-2-yl)-8-methyl-3-phenyl-6,7,8,9-tetrahydro-5H-imidazo[1,5-a][1,4]diazepine-1-carboxamide]",+,> 10 µM,,
"CN1CCCn2c(-c3ccccc3)nc(C(=O)N[C@H](C(=O)NC3CC3)C(C)(C)C)c2C1 [Compound 477, (S)-N-(1-(cyclopropylamino)-3,3-dimethyl-1-oxobutan-2-yl)-8-methyl-3-phenyl-6,7,8,9-tetrahydro-5H-imidazo[1,5-a][1,4]diazepine-1-carboxamide]",+,> 10 µM,,
"CCNC(=O)[C@@H](NC(=O)c1nc(-c2ccccc2)n2c1CN(C)CCC2)C(C)(C)C [Compound 478, (S)-N-(1-(ethylamino)-3,3-dimethyl-1-oxobutan-2-yl)-8-methyl-3-phenyl-6,7,8,9-tetrahydro-5H-imidazo[1,5-a][1,4]diazepine-1-carboxamide]",+,> 10 µM,,
"CN1CCCn2c(-c3ccccc3)nc(C(=O)N[C@H](C(=O)NCC3CCOCC3)C(C)(C)C)c2C1 [Compound 479, (S)-N-(3,3-dimethyl-1-oxo-1-((tetrahydro-2H-pyran-4-yl)methylamino)butan-2-yl)-8-methyl-3-phenyl-6,7,8,9-tetrahydro-5H-imidazo[1,5-a][1,4]diazepine-1-carboxamide]",+,> 10 µM,,
"CN1CCCn2c(-c3ccccc3)nc(C(=O)N[C@H](C(=O)NC3CCC3)C(C)(C)C)c2C1 [Compound 480, (S)-N-(1-(cyclobutylamino)-3,3-dimethyl-1-oxobutan-2-yl)-8-methyl-3-phenyl-6,7,8,9-tetrahydro-5H-imidazo[1,5-a][1,4]diazepine-1-carboxamide]",,> 10 µM,,> 10 µM
"CNC(=O)[C@@H](NC(=O)c1nc(-c2ccccc2)n2c1C[N+](C)(C)CCC2)C(C)(C)C [Compound 481, (S)-1-(3,3-dimethyl-1-(methylamino)-1-oxobutan-2-ylcarbamoyl)-8,8-dimethyl-3-phenyl-6,7,8,9-tetrahydro-5H-imidazo[1,5-a][1,4]diazepin-8-ium]",,> 10 µM,,> 10 µM
"CNC(=O)[C@@H](NC(=O)c1nc(-c2ccc(Cl)cc2F)n2c1CN(c1ncccn1)CCC2)C(C)(C)C [Compound 482, 3-(4-chloro-2-fluorophenyl)-N-(3,3-dimethyl-1-(methylamino)-1-oxobutan-2-yl)-8-(pyrimidin-2-yl)-6,7,8,9-tetrahydro-5H-imidazo[1,5-a][1,4]diazepine-1-carboxamide]",+,,+,
"CNC(=O)[C@@H](NC(=O)c1nc(-c2ccccc2)n2c1CN(c1ncccn1)CCC2)C(C)(C)C [Compound 483, (S)-N-(3,3-dimethyl-1-(methylamino)-1-oxobutan-2-yl)-3-phenyl-8-(pyrimidin-2-yl)-6,7,8,9-tetrahydro-5H-imidazo[1,5-a][1,4]diazepine-1-carboxamide]",−,,+,
